According to PubChem BioAssay (NCI):
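Step 1: Grow cells in 96-well plates. Step 2: Expose to compound for 48 hours at 5 concentrations. Step 3: Interpolate endpoints linearly; if unreached, use highest concentration. GI50 = concentration required for 50% inhibition of growth. TGI: concentration producing complete growth inhibition.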

Experiments:
Experiment in all cases: NCI tumour cell line growth inhibition, 48 h
[1] = system: A549 NSCLC
[2] = system: SK-MEL-28 melanoma
[3] = system: TK-10 renal
[4] = system: NCI/ADR-RES ovarian
[5] = system: SK-MEL-5 melanoma
[6] = system: COLO 205 colon
[7] = system: IGROV1 ovarian
[8] = system: HOP-92 NSCLC
[9] = system: SNB-19 CNS
[10] = system: SF-268 CNS
[11] = system: SF-539 CNS
[12] = system: MCF7 breast
[13] = system: HCT-15 colon
[14] = system: A498 renal
[15] = system: RXF 393 renal
[16] = system: HCT-116 colon
[17] = system: U251 CNS
[18] = system: NCI-H460 lung
[19] = system: SF-295 CNS
[20] = system: KM12 colon
[21] = system: HS 578T breast
[22] = system: CAKI-1 renal
[23] = system: UACC-62 melanoma
[24] = system: CCRF-CEM leukemia
[25] = system: LOX IMVI melanoma
[26] = system: OVCAR-3 ovarian
[27] = system: SNB-75 CNS
[28] = system: ACHN renal
[29] = system: RPMI-8226 leukemia
[30] = system: T-47D breast
[31] = system: EKVX NSCLC
[32] = system: SK-MEL-2 melanoma
[33] = system: UO-31 renal
[34] = system: MALME-3M melanoma
[35] = system: HCC-2998 colon
[36] = system: PC-3 prostate
[37] = system: MDA-MB-435
[38] = system: MDA-MB-231 breast
[39] = system: K-562 leukemia
[40] = system: OVCAR-4 ovarian
[41] = system: OVCAR-5 ovarian
[42] = system: M14 melanoma
[43] = system: OVCAR-8 ovarian
[44] = system: NCI-H522 lung
[45] = system: HT29 colon
[46] = system: NCI-H226 lung
[47] = system: MOLT-4 leukemia
[48] = system: NCI-H23 lung
[49] = system: HL-60(TB) leukemia
[50] = system: HOP-62 NSCLC
[51] = system: SW-620 colon
[52] = system: UACC-257 melanoma
[53] = system: SK-OV-3 ovarian
[54] = system: DU-145 prostate
[55] = system: 786-0 renal
[56] = system: SN12C renal
[57] = system: BT-549 breast

COc1ccc(CN2C(=O)/C(=C\c3cc(OC)c(OC)c(OC)c3)c3cc(OC)ccc32)cc1
GI50 [1]: 2.74 µM | TGI [1]: 8.62 µM | GI50 [2]: 1.72 µM | TGI [2]: 3.3 µM | GI50 [3]: 3.92 µM | TGI [3]: 18.6 µM | GI50 [4]: 2.69 µM | TGI [4]: 9.11 µM | GI50 [5]: 3.09 µM | TGI [5]: 9.41 µM | GI50 [6]: 2.59 µM | TGI [6]: 6.51 µM | GI50 [7]: 1.8 µM | TGI [7]: 4.06 µM | GI50 [8]: 1.21 µM | TGI [8]: 16.8 µM | GI50 [9]: 3 µM | TGI [9]: 10.7 µM | GI50 [10]: 2.68 µM | TGI [10]: 7.05 µM | GI50 [11]: 1.86 µM | TGI [11]: 3.76 µM | GI50 [12]: 2.91 µM | TGI [12]: 11.8 µM | GI50 [13]: 1.66 µM | TGI [13]: 3.42 µM | GI50 [14]: 1.5 µM | TGI [14]: 4.39 µM | GI50 [15]: 1.63 µM | TGI [15]: 3.47 µM | GI50 [16]: 1.63 µM | TGI [16]: 3.05 µM | GI50 [17]: 1.38 µM | TGI [17]: 2.67 µM | GI50 [18]: 1.91 µM | TGI [18]: 3.83 µM | GI50 [19]: 3.26 µM | TGI [19]: > 31.4 µM | GI50 [20]: 2.04 µM | TGI [20]: 4.05 µM | GI50 [21]: 2.4 µM | TGI [21]: 8.72 µM | GI50 [22]: 2.95 µM | TGI [22]: > 22.2 µM | GI50 [23]: 1.71 µM | TGI [23]: 4.19 µM | GI50 [24]: 3.4 µM | TGI [24]: > 100 µM | GI50 [25]: 1.35 µM | TGI [25]: 2.67 µM | GI50 [26]: 2.14 µM | TGI [26]: 4.7 µM | GI50 [27]: 2.17 µM | TGI [27]: 6.62 µM | GI50 [28]: 1.73 µM | TGI [28]: 3.2 µM | GI50 [29]: 1.89 µM | TGI [29]: 5.63 µM | GI50 [30]: 2.34 µM | TGI [30]: 7.62 µM | GI50 [31]: 3.83 µM | TGI [31]: > 65.6 µM | GI50 [32]: 1.92 µM | TGI [32]: 4.01 µM | GI50 [33]: 2.67 µM | TGI [33]: 10.7 µM | GI50 [34]: 3.82 µM | TGI [34]: 34.1 µM | GI50 [35]: 2.05 µM | TGI [35]: 3.85 µM | GI50 [36]: 3.35 µM | TGI [36]: 19.5 µM | GI50 [37]: 2.88 µM | TGI [37]: 8.88 µM | GI50 [38]: 2.89 µM | TGI [38]: > 100 µM | GI50 [39]: 3.13 µM | TGI [39]: > 35.5 µM | GI50 [40]: 3.5 µM | TGI [40]: 27.4 µM | GI50 [41]: 2.47 µM | TGI [41]: 5.51 µM | GI50 [42]: 1.98 µM | TGI [42]: 4.32 µM | GI50 [43]: 2.32 µM | TGI [43]: > 23.9 µM | GI50 [44]: 1.32 µM | TGI [44]: 2.8 µM | GI50 [45]: 2.19 µM | TGI [45]: 4.45 µM | GI50 [46]: 3.93 µM | TGI [46]: 22.8 µM | GI50 [47]: 4.07 µM | TGI [47]: > 100 µM | GI50 [48]: 1.84 µM | TGI [48]: 3.85 µM | GI50 [49]: 3.28 µM | TGI [49]: > 28.5 µM | GI50 [50]: 2.37 µM | TGI [50]: 4.89 µM | GI50 [51]: 1.82 µM | TGI [51]: 3.41 µM | GI50 [52]: 1.94 µM | TGI [52]: 4.94 µM | GI50 [53]: 3.12 µM | TGI [53]: 13.1 µM | GI50 [54]: 2.96 µM | TGI [54]: 7.64 µM | GI50 [55]: 2.29 µM | TGI [55]: 5.07 µM | GI50 [56]: 3.53 µM | TGI [56]: > 39.4 µM | GI50 [57]: 3.34 µM | TGI [57]: 20.4 µM
